In US8722903B2, “Indazole derivatives for the treatment of HSP9O-induced diseases” (Merck Patent GmbH, priority 2006, dated 2014) one finds IC50 data, which are given here for twelve compounds.

pIC50: −log10 of the molar value.

The assay deals with T1, Recombinant human HSP90α (Homo sapiens, UniProt P07900).
T1 construct: host or cells: E. coli
The experiment in a line: Radioligand filter binding test: competitive inhibition of [3H]17AAG binding to HSP90. The conditions noted are these: [3H]17AAG 0.08 μM, HSP90 1.5 μg/assay, 22° C., 30 min. As to the method:
In the specific case, a radioligand filter binding test is used. The radioligand used here is tritium-labelled 17-allylaminogeldanamycin, [3H]17AAG, This filter binding test allows a targeted search for inhibitors which interfere with the ATP binding site.
Recombinant human HSP90α (E. coli expressed, 95% purity);
HEPES filter buffer (50 mM HEPES, pH 7.0, 5 mM MgCl2, BSA 0.01%) Multiscreen FB (1 μm) filter plate (Millipore, MAFBNOB 50).
The 96-well microtitre filter plates are firstly irrigated and coated with 0.1% of polyethylenimine.
The test is carried out under the following conditions:
Reaction temperature 22° C.
Reaction time: 30 min., shaking at 800 rpm
50 mM HEPES HCl, pH 7.0, 5 mM MgCl2, 0.01% (w/v) of BSA
At the end of the reaction, the supernatant in the filter plate is removed by suction with the aid of a vacuum manifold (Multiscreen Separation System, Millipore), and the filter is washed twice.
The filter plates are then measured in a beta counter (Microbeta, Wallac) with scintillator (Microscint 20, Packard).
“% of control” is determined from the “counts per minutes” values, and the IC-50 value of a compound is calculated therefrom.
Broadly, the pIC50 is −log10 of the IC50, conventionally taken in molar units. For the compound `COCCN(C)C(=O)c1cc2c(Cc3ccccc3Cl)n[nH]c2cc1O` [Compound A34, 5-[N-(2-Methoxyethyl)-N-methylaminocarbonyl]-3-(2-chlorobenzyl)-6-hydroxy-1H-indazole], the pIC50 is under 5.00. Regarding `CN(Cc1cccc(Cl)c1)C(=O)c1cc2c(Cc3ccccc3)n[nH]c2cc1O` [Compound A10, 5-[N-(3-Chlorobenzyl)-N-methylaminocarbonyl]-3-benzyl-6-hydroxy-1H-indazole], the pIC50 was 5.00 to 6.00. The value for `Cc1cccc(Cc2n[nH]c3cc(O)c(C(=O)N(C)Cc4ccc5c(c4)OCCO5)cc23)c1` [Compound A101, 5-[N-(2,3-Dihydrobenzo-1,4-dioxin-6-ylmethyl)-N-methylaminocarbonyl]-3-(3-methylbenzyl)-6-hydroxy-1H-indazole] was 6.00 to 8.00; that for `CCCc1n[nH]c2cc(O)c(C(=O)N(C)Cc3ccccc3)cc12` [Compound A178, 5-(N-Benzyl-N-methylaminocarbonyl)-3-propyl-6-hydroxy-1H-indazole] was 6.00 to 8.00; that for `CN(Cc1ccccc1)C(=O)c1cc2c(Cc3ccccc3Cl)n[nH]c2cc1O` [Compound A32, 5-(N-Benzyl-N-methylaminocarbonyl)-3-(2-chlorobenzyl)-6-hydroxy-1H-indazole] was 5.00 to 6.00. On to `CCCN(C)C(=O)c1cc2c(Cc3cccc(Cl)c3)n[nH]c2cc1O` [Compound A42, 5-(N-Propyl-N-methylaminocarbonyl)-3-(3-chlorobenzyl)-6-hydroxy-1H-indazole], for which the negative-log IC50 (pIC50) is 6.00 to 8.00.

For the compound `CCCc1n[nH]c2cc(O)c(C(=O)N(C)c3ccc(CNS(C)(=O)=O)cc3)cc12` [Compound A177, 5-[N-(4-Methylsulfonylaminomethylphenyl)-N-methylaminocarbonyl]-3-propyl-6-hydroxy-1H-indazole], the pIC50 was 6.00 to 8.00. Regarding `Cc1ccc(Cc2n[nH]c3cc(O)c(C(=O)N(C)c4ccccc4)cc23)cc1` [Compound A122, 5-(N-Phenyl-N-methylaminocarbonyl)-3-(4-methylbenzyl)-6-hydroxy-1H-indazole], the negative logarithm of the IC50 (pIC50) is 6.00 to 8.00. As for `COc1cc(N(C)C(=O)c2cc3c(Cc4cccc(C)c4)n[nH]c3cc2O)ccc1N1CCN(C)CC1` [Compound A190, 5-{N-[3-Methoxy-4-(4-methylpiperazin-1-yl)phenyl]-N-methylaminocarbonyl}-3-(3-methylbenzyl)-6-hydroxy-1H-indazole], the negative-log IC50 (pIC50) was 6.00 to 8.00.

As for `CCCCN(C)C(=O)c1cc2c(Cc3ccccc3C)n[nH]c2cc1O` [Compound A43, 5-(N-Butyl-N-methylaminocarbonyl)-3-(2-methylbenzyl)-6-hydroxy-1H-indazole], the negative logarithm of the IC50 (pIC50) is 5.00 to 6.00.

With `CCCCN(C)C(=O)c1cc2c(Cc3cccc(C)c3)n[nH]c2cc1O` [Compound A25, 5-(N-Butyl-N-methylaminocarbonyl)-3-(3-methylbenzyl)-6-hydroxy-1H-indazole], the pIC50 is 6.00 to 8.00. On to `CCCCN(C)C(=O)c1cc2c(Cc3ccccc3Cl)n[nH]c2cc1O` [Compound A33, 5-(N-Butyl-N-methylaminocarbonyl)-3-(2-chlorobenzyl)-6-hydroxy-1H-indazole], for which the negative-log IC50 (pIC50) was 5.00 to 6.00.
